Among the data in patent publication US10100045B2, “3-aryl-2H-pyrazolo[4,3-b]pyridine compounds and their use as AMPA receptor modulators” (Janssen Pharmaceutica NV, priority 2016, dated 2018) are pIC50 values, retold here.

Sequence of GluA1o-γ8 (GRIA1o-CACNG8 fusion construct; TARP γ8 dependent AMPA receptor) (P42261 other isoform, or with tags, fused parts or gaps): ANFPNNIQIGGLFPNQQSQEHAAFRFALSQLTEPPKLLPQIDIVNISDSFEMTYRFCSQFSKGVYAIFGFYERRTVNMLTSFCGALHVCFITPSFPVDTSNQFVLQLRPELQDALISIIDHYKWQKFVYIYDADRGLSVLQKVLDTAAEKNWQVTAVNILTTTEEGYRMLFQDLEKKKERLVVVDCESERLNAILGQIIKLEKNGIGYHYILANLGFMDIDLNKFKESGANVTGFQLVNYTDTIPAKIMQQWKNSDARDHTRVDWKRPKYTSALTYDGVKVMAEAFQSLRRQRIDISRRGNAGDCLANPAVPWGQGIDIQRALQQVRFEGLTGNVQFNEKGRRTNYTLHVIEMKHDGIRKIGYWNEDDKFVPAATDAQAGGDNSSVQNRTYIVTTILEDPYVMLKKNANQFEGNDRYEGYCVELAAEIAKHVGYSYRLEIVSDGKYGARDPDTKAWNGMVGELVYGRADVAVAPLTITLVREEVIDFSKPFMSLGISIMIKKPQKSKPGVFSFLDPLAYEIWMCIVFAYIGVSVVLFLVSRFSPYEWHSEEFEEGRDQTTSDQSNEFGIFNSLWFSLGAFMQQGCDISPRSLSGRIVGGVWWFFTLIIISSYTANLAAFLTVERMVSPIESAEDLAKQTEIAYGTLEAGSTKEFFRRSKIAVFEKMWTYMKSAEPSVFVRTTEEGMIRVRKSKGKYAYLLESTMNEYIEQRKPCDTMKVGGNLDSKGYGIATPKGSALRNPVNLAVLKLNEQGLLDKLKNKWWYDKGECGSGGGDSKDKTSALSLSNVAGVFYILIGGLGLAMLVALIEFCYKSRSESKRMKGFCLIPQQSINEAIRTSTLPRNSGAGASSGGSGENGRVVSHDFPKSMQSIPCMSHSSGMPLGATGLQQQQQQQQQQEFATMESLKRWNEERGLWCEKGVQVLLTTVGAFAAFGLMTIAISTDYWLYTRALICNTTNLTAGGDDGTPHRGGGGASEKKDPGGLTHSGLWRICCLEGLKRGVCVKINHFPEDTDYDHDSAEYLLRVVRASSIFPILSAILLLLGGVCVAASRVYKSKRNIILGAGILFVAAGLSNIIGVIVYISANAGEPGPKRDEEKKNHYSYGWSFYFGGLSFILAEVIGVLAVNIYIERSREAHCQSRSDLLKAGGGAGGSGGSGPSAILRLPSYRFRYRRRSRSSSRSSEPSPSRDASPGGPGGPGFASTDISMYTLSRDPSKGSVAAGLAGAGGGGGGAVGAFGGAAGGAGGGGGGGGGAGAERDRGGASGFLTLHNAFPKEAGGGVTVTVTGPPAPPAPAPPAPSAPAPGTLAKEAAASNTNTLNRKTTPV

This assay concerns the target GluA1o-γ8 (GRIA1o-CACNG8 fusion construct; TARP γ8 dependent AMPA receptor) (Homo sapiens (Human), UniProt P42261+Q8WXS5). As to the kind of experiment: Calcium flux assay (FLIPR), inhibition of glutamate response of GluA1o-γ8 channel. It counts as cell-based. The settings on record: HEK293 cells stably expressing GRIA1o-CACNG8 fusion; 15 μM glutamate; negative log of the IC50 in molar. The source says: This assay was used to test compounds for their ability to inhibit TARP γ8 dependent AMPA receptor activity. The AMPA receptor is a non-selective cation channel activated by glutamate. Ionotropic glutamate receptors normally desensitize too rapidly to allow detectable calcium influx in a FLIPR assay (Strange et al. (2006). “Functional characterisation of homomeric ionotropic glutamate receptors GluR1-GluR6 in a fluorescence-based high throughput screening assay.” Comb Chem High Throughput Screen 9(2): 147-158). But, this desensitization is incomplete, and a substantial steady-state current remains in the sustained presence of glutamate (Cho et al. (2007). “Two families of TARP isoforms that have distinct effects on the kinetic properties of AMPA receptors and synaptic currents.” Neuron 55(6): 890-904). An in vitro assay was used to determine the potency of test compounds as inhibitors of the glutamate response of the channel formed by GluA1o-γ8. To ensure a 1:1 stoichiometry of GluA1o and γ8 subunits in the expressed channel, a fusion of the cDNAs for GRIA1o and CACNG8 was used. Following Shi et al (2009) “The stoichiometry of AMPA receptors and TARPs varies by neuronal cell type.” Neuron 62(5): 633-640), the C-terminus of the cDNA for GRIA1o was fused to the N-terminus of the cDNA for γ8. The linker sequence was QQQQQQQQQQEFAT. Channels expressed with this construct appear to have similar properties to channels formed by co-expression of GRIA1o with an excess of CACNG8 (Shi et al. 2009). A clonal cell line in HEK293 cells stably expressing this construct, with a geneticin selection marker, was generated for use in this assay.
Cell expressing the GRIA1o-CACNG8 fusion construct were grown in a monolayer in 96- or 384-well microtiter plates. They were washed with assay buffer (135 mM NaCl, 4 mM KCl, 3 mM CaCl2, 1 mM MgCl2, 5 mM glucose, 10 mM HEPES, pH 7.4, 300 mOs) using a Biotek EL405 plate washer. The cells were then loaded with a calcium-sensitive dye (Calcium-5 or Calcium-6, Molecular Devices) and the test compounds at a range of concentrations. Calcium flux following the addition of 15 μM glutamate was monitored using a Molecular Devices FLIPR Tetra. The fluorescence in each well was normalized to the fluorescence of negative and positive control wells. The negative control wells had no added compounds, and the positive control wells had been incubated with 10 μM CP465022 (a non-subtype-selective AMPA receptor antagonist) (Lazzaro et al. (2002). “Functional characterization of CP-465,022, a selective, noncompetitive AMPA receptor antagonist.” Neuropharmacology 42(2): 143-153). The responses to glutamate as functions of the test compound concentrations were fitted to a four-parameter logistic function. The fitted parameter corresponding to the midpoint was taken to be the potency of inhibition of the compound. The data in Table 3 below illustrates the observed potentcy for the compounds described herein. pIC50 refers to the negative log of the IC50 in molar.
(In general: A change in cytosolic calcium serves as a functional read-out for many receptors and channels.)
Usually pIC50 stands for −log10 of the IC50, conventionally taken in molar units. `FC(F)(F)c1ccc2nn(C3CCC3)c(-c3cc(Cl)c4[nH]ncc4c3)c2n1` [Example 28, 3-(7-Chloro-1H-indazol-5-yl)-2-cyclobutyl-5-(trifluoromethyl)-2H-pyrazolo[4,3-b]pyridine]: the pIC50 is recorded as 10.7. As to `O=C1Cc2cc(-c3c4nc(C(F)(F)F)ccc4nn3C(F)F)cc(Cl)c2N1` [Example 29, 7-Chloro-5-(2-(difluoromethyl)-5-(trifluoromethyl)-2H-pyrazolo[4,3-b]pyridin-3-yl)indolin-2-one], the pIC50 came out at 8.6. In the case of `Cc1cc(-c2c3nc(C(F)(F)F)ccc3nn2C(F)F)cc2cn[nH]c12` [Example 30, 2-(Difluoromethyl)-3-(7-methyl-1H-indazol-5-yl)-5-(trifluoromethyl)-2H-pyrazolo[4,3-b]pyridine], the negative logarithm of the IC50 (pIC50) came to 9.2. As to `FC(F)n1nc2ccc(C(F)(F)F)nc2c1-c1cc(Cl)c2[nH]ncc2c1` [Example 31, 3-(7-Chloro-1H-indazol-5-yl)-2-(difluoromethyl)-5-(trifluoromethyl)-2H-pyrazolo[4,3-b]pyridine], the pIC50 is given as 9.2. For `Cc1cc(-c2c3nc(C(F)F)ccc3nn2C(C)C)cc2cn[nH]c12` [Example 34, 5-(Difluoromethyl)-2-isopropyl-3-(7-methyl-1H-indazol-5-yl)-2H-pyrazolo[4,3-b]pyridine], the negative logarithm of the IC50 (pIC50) was determined as 10.0. Take `CC(C)n1nc2ccc(C(F)F)nc2c1-c1cc(Cl)c2c(c1)CC(=O)N2` [Example 36, 7-Chloro-5-(5-(difluoromethyl)-2-isopropyl-2H-pyrazolo[4,3-b]pyridin-3-yl)indolin-2-one]: the pIC50 came to 9.4. For the compound `Cc1cc(-c2c3nccc(C(F)F)c3nn2C(C)C)cc2cn[nH]c12` [Example 38, 7-(Difluoromethyl)-2-isopropyl-3-(7-methyl-1H-indazol-5-yl)pyrazolo[4,3-b]pyridine], the pIC50 is 6.9. As to `CC(C)n1nc2cccnc2c1-c1cc(Cl)c2[nH]ncc2c1` [Example 39, 3-(7-Chloro-1H-indazol-5-yl)-2-isopropyl-pyrazolo[4,3-b]pyridine], the negative logarithm of the IC50 (pIC50) was determined as 7.2. Next, `Cc1cc(-c2c3nc(C(F)F)cc(C(F)F)c3nn2C(C)C)cc2cn[nH]c12` [Example 40, 5,7-Bis(difluoromethyl)-2-isopropyl-3-(7-methyl-1H-indazol-5-yl)pyrazolo[4,3-b]pyridine]: 9.8.
